Reference: publication PMC10901097, “Vanillin derivatives as antiamnesic agents in scopolamine-induced memory impairment in mice” (Heliyon, 2024)
Entries after “also recorded” stand apart in the source; their conditions may differ.

Key:
[1] = system: scopolamine-induced memory impairment in mice; test: Y-maze spontaneous alternation, scopolamine-induced amnesia; type: in vivo, Albino mice; conditions: for effect on spontaneous alternation / short-term memory retention in Y-Maze (significance): 50 and 100 mg/kg b.w, compared with scopolamine-injected group
Method: (§1) Albino mice (20–23 g b. w.) were brought from National Institute of Health, Islamabad, Pakistan, and the mice were retained in animal house at University of Malakand at Department of Pharmacy for acclimation. Normal pellet diet and water were provided to all the animals and were kept for 12 h of light-dark cycle under normal laboratory conditions (temperature in a range of 25 ± 2 °C, humidity of 56–66%). All protocols employed were approved from the Ethical Committee vide notification Pharm/EC-QRE/10–31/25 as per approved “Animal Bye-Laws 2008, Scientific Procedures Issue-I of the Malakand University” and the UK animal scientific procedure act (1986).
(§2) After acclimatization, the animals were grouped into different groups consisting of 6 animals each. […] It also can induce amyloid β deposition, oxidative stress, synaptic dysfunction, and learning/memory impairment in experimental animals. Group II received scopolamine along with galantamine as standard. […] The treatment was carried out continuously for 7 days and after treatment schedule, the animals were subjected to behavioural study using Y-maze and NORT.
To assess the short-term memory (amnesic) effect, the exploratory activity of mice were investigated using Y- maze apparatus. At a time, a single mouse was placed at Y-shaped maize and allowed to move freely for 5-min session and alterations were recorded as shown in Fig. 2. The percentage alternations were calculated as per reported protocol and mathematically as given in equation (2).[2] %Alternation=Spontaneousalternation/Totalnumberofarmentries−2×100
Fig. 2 (A). Schematic drawings of the Y-maze and the experimental procedures. The sample trial and test trials were conducted for 5 min at a 30 min interval. (B) The Y-Maze test diagrammatic figure. (a) The mouse was positioned in the middle of the fixed arm and faced the maze's centre during the test. (b) A mouse was considered to have entered an arm when all four of its paws passed the threshold inside the arm and the mouse's snout was pointed in the direction of the end of the arm. (C). Alternations consist of single, uninterrupted entries into each arm of the y-maze. There are three steps involved in each alternation. The steps of alternation are shown in (a) the first entrance into the arm 1; (b) the second entry into the arm 3; and (c) the third entry into the arm 2 [41, 42].

[2] = ABTS free radical scavenging assay; conditions: triplicate (n = 3); 745 nm, 15 min
Method: The antioxidant potential of the synthesized compounds were also determined using ABTS free radical following a reported standard protocol. ABTS (7 mM) and K2S2O8 (2.45 mM) were mixed (in methanol) and put in the dark for 24 h for free radicals’ formation, which was then used as stock solution. The absorbance of 3 mL from the stock ABTS was adjusted to 0.75 at 745 nm, which was considered a control. About 300 μl of each of the serial dilutions (0.1–3.5 μM) of SB1– SB6 and 3 mL of stock ABTS were mixed and incubated for 15 min at 25 °C, and their absorbance was measured at 745 nm. Ascorbic acid was used as a control. The scavenging activity was calculated by Equation (1).

[3] = molecular target: T1, butyrylcholinesterase (EC 3.1.1.8) (Homo sapiens, UniProt P06276); test: In-vitro BChE inhibitory assay (Ellman's protocol); type: biochemical; conditions: triplicate (n = 3); 405 nm
T1 construct: purchased local market (no vendor named)
Method: (§3) To evaluate the therapeutic effectiveness of the compounds as inhibitors of cholinesterases, the reported procedures were followed (Elman's protocol). Enzymes acetylcholinesterase (EC 3.1.1.7) and butyrylcholinesterase (EC 3.1.1.8) were purchased from local market.
The absorbance at 405 nm was measured and the data were analysed in triplicate.

[4] = DPPH free radical scavenging assay; conditions: triplicate (n = 3); 517 nm, 15 min
Method: A slightly modified DPPH assay as described by Brand William was followed. Initially, the absorbance of 3 mL from stock DPPH (20 mg/100 mL of methanol) was adjusted to 0.75 at 517 nm. The DPPH stock solution was covered and kept in the dark overnight to generate free radicals. About 2 mL of each dilution of different ranges (0.1–3.5 μM) was prepared from SB1– SB6 stock (5 mg/5 mL of methanol) were mixed with 2 mL of pre-incubated DPPH stock solution and incubated for 15 min at room temperature. Ascorbic acid was used as a standard. The absorbance of the reaction mixtures was recorded at 517 nm and the % inhibition was calculated by Equation (1):[1] %inhibition=A−B/A×100
where A = absorbance of pure DPPH in oxidized form, B = absorbance of the sample, which
Was measured after 15 min of reaction with DPPH.

[5] = molecular target: T2, acetylcholinesterase (EC 3.1.1.7) (Homo sapiens, UniProt P22303); test: biochemical; conditions: triplicate (n = 3); 405 nm; read-out: IC50 (μM) AChE
T2 construct: purchased local market (no vendor named)
Source text: as §3
The acetylcholinesterase inhibition assay is based on the principle of the hydrolytic breakdown of substrate; acetylthiocholine iodide by acetylcholinesterase enzyme. The AChE acts on acetylthiocholine to thiocholine which then react with DTNB that's leads towards the formations of anion (5-thio-2-nitrobenzoate) a yellow colour product which is then assessed via UV visible spectrophotometer at 405 nm.
The AChE, Ellman's Reagent (DTNB) and acetylthiocholine iodide (ATChI, substrate), and the test compound solutions were made in different concentrations ranges from (0.01–1.0 μM) were incubated per detail given in the Ellman's protocol. […] IC50 of each Schiff bases were calculated using Microsoft Excel 2013 software.

[6] = system: scopolamine-induced memory impairment in mice; test: Novel object recognition test (NORT), scopolamine-induced amnesia; type: in vivo, Albino mice; conditions: for effect on discrimination index in NOR test: 50 mg/kg and 100 mg/kg b.w, compared with scopolamine group / galantamine; for effect on time spent with the new object N (exploration time) in NOR test: 50 and 100 mg/kg b.w (galantamine: standard), compared with scopolamine group; for effect on latency time to discover familiar object (F) in NOR test: 50 and 100 mg/kg b.w, compared with scopolamine-injected group
Method: as §1
as §2, with “animals.” for “animals. Group II received scopolamine along with galantamine as standard.”
NORT was used to assess the effect of vanillin derivatives on memory in mice model. The apparatus employed in this test measures 40 cm wide, 40 cm long, and 66 cm tall. NORT entails a two-day habituation period, followed by a two-day training session and finally a testing or experimental period. During habituation, an empty box was used, two identical objects were placed in two corners of the box during training, and one unique object was replaced during testing as shown in Fig. 3. To test long-term memory in mice, a five-day washout period was provided before the NORT. The time spent in each phase was manually documented using a stopwatch.
Fig. 3 Procedures for novel object recognition (NORT). The three phases of the test are shown. In NORT, object identity is changed between training and test; object location is remained unchanged.

[7] = 50 mg/kg b.w (lower test dose), 7 days, with scopolamine 2 mg/kg i.p., mean ± SEM, n = 6

T2 sequence (P22303 32-614, species assumed): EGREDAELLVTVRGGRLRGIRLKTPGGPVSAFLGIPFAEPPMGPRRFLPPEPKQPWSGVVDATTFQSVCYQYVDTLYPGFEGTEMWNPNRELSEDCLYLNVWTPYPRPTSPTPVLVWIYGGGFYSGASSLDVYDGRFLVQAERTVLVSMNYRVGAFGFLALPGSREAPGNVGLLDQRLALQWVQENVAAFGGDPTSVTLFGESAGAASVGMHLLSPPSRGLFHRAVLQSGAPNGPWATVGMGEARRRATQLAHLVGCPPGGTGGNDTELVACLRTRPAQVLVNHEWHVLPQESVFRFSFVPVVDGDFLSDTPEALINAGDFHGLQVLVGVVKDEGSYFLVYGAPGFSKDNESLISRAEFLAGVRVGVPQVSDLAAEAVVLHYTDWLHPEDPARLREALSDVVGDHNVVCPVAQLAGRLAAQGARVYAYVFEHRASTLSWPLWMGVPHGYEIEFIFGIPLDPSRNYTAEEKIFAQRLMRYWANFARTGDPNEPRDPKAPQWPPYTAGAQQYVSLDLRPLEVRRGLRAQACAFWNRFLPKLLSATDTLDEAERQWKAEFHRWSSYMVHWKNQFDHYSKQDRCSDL
T1 sequence (P06276 29-602): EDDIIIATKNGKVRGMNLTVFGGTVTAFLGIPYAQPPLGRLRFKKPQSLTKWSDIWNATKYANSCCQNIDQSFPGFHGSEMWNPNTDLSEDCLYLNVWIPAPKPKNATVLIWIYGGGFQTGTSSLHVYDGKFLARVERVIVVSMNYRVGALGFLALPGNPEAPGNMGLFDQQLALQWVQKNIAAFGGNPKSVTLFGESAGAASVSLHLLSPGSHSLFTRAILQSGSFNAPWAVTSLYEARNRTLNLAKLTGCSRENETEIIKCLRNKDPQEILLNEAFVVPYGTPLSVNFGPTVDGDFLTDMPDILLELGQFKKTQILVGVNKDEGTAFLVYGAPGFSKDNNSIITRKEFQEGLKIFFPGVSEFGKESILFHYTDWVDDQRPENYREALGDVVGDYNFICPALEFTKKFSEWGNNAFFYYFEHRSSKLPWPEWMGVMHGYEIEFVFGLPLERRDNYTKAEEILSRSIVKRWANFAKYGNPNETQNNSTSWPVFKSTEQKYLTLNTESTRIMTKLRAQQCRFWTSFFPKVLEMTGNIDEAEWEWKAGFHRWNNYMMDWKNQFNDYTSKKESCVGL

SMILES | spontaneous alternation rate in Y-Maze [1, 7] [%] | effect on spontaneous alternation / short-term memory retention in Y-Maze (significance) [1] | IC50 [2] [µM] | IC50 [3] [µM] | IC50 [4] [µM] | IC50 [5] [µM] | effect on discrimination index in NOR test [6] | effect on time spent with the new object N (exploration time) in NOR test [6] | effect on latency time to discover familiar object (F) in NOR test [6] | spontaneous alternation rate in Y-Maze ([1]; scopolamine-treated group, 2 mg/kg i.p. alone, n = 6) [%] | changes in the memory and cognition of mice (NORT) ([6]; mouse, in vivo) | spontaneous alternation rate in Y-Maze ([1]; standard group: galantamine with scopolamine, P < 0.001 vs scopolamine-treated group)
COc1cc(/C=N/c2ccccc2C(F)(F)F)ccc1O [SB-1, (E)-2-methoxy-4-(((2-(trifluoromethyl)phenyl)imino)methyl)phenol] | 69.44 ± 1 | significantly improved | 0.208 | 0.265 | 0.588 | 0.078 | most prominent activity; also recorded: more pronounced as compared to standard drug | significant increase | decreased the latency time significantly | – | – | –
CN1[C@@H]2C[C@@H](OC(=O)[C@H](CO)c3ccccc3)C[C@H]1[C@@H]1O[C@@H]12 [Scopolamine] | – | – | – | – | – | – | – | – | – | 38.16 | – | –
COc1ccc(/C=N/c2ccccc2C(F)(F)F)cc1O [SB-2, (E)-2-methoxy-5-(((2-(trifluoromethyl)phenyl)imino)methyl)phenol] | – | no significant effect | 0.401 | 0.188 | 0.447 | 0.61 | insignificant activity | insignificant activity | insignificant | – | did not cause any changes | –
Cc1ccc(/N=C/c2ccc[nH]2)c(Cl)c1 [SB-6, (E)-N-((1H-pyrrol-2-yl)methylene)-2-chloro-4-methylaniline] | – | – | 3.3 | 0.117 | 2.8 | – | – | slight activity | decreased the latency time significantly | – | – | –
Oc1ccc(/C=N/c2ccccc2C(F)(F)F)cc1 [SB-3, (E)-4-(((2-(trifluoromethyl)phenyl)imino)methyl)phenol] | 68.92 ± 1 | significantly improved | 0.118 | 0.057 | 0.305 | 0.157 | most prominent activity | significant increase | decreased the latency time significantly | – | – | –
Cc1ccc(/N=C/c2ccc(O)cc2)c(Cl)c1 [SB-4, (E)-4-(((2-chloro-4-methylphenyl)imino)methyl)phenol] | – | – | 0.969 | 0.367 | 0.804 | 0.108 | most prominent activity | significant increase | decreased the latency time significantly | – | – | –
Cc1ccc(/N=C/c2ccccc2Br)c(Cl)c1 [SB-5, (E)-N-(2-bromobenzylidene)-2-chloro-4-methylaniline] | – | – | 0.19 | 0.186 | 0.72 | 0.442 | insignificant activity | insignificant activity | significant decrease | – | – | –
O=C1O[C@H]([C@@H](O)CO)C(O)=C1O [Ascorbic acid, reference compound] | – | – | 0.073 | – | 0.074 | – | – | – | – | – | – | –
COc1ccc2c3c1O[C@H]1C[C@@H](O)C=C[C@@]31CCN(C)C2 [Galantamine, reference compound] | – | – | – | – | – | – | – | significant increase | – | – | – | more than 80%
